Consider 3 substances from patent US8722052B2, “Vaccinia virus protein A46 peptide and use thereof” (priority 2008, dated 2014).

The subject of one assay is IL-12p40. The assay is described as follows: LPS-induced serum IL-12p40 in mice, ELISA. It counts as in vivo. As to conditions: female BALB/c mice, serum at 4 hours; for serum IL-12p40 level compared with PBS-treated animals: i.v. 1 μg LPS with 3 mg/kg peptide; for inhibition of LPS-induced serum IL-12p40: i.v. single bolus 1 μg LPS with 3 mg/kg peptide. On the procedure:
FIG. 30 is a graph showing that A464 inhibits LPS-induced IL-12/23 p40 in vivo. Groups of 5 female BALB/c mice were injected i.v. with a single bolus of one of the following: PBS, 1 μg LPS, 1 μg LPS with 3 mg/kg D-9RN-A464 (SEQ ID NO. 38), 1 μg LPS with 3 mg/kg L-9RN-A464 (SEQ ID NO. 38), or 1 μg LPS with 3 mg/kg L-9RN-A467 (SEQ ID NO. 39). Four hours later, blood was harvested and serum derived. The serum was assayed for IL-12p40 by ELISA. Concentrations are expressed as pg/ml. * p<0.05, *** p<0.001 samples versus LPS. # p<0.01 samples versus PBS.
(§1) Cytokine and chemokine production from cells or mouse serum was measured by ELISA using Duoset kits from R&D systems, according to the manufacturer's instructions.
To do this we used a well characterised model of Gram negative sepsis, where mice are injected with LPS and serum cytokines are later analysed by ELISA. […] Mice were injected i.v. with LPS alone, or with peptide in the presence of LPS. Four hours later serum IL-12p40 concentrations were measured. […] Thus peptides based on the 464 sequence (SEQ ID No. 4) have efficacy in vivo. Thus peptides comprising the 464 sequence (SEQ ID No.4) can inhibit LPS induced proinflammatory IL-12p40 in vivo.

In another assay the target is T1, TLR2 (Mus musculus, UniProt Q9QUN7).
T1 construct: endogenous in cells
T1 sequence (Q9QUN7 25-784): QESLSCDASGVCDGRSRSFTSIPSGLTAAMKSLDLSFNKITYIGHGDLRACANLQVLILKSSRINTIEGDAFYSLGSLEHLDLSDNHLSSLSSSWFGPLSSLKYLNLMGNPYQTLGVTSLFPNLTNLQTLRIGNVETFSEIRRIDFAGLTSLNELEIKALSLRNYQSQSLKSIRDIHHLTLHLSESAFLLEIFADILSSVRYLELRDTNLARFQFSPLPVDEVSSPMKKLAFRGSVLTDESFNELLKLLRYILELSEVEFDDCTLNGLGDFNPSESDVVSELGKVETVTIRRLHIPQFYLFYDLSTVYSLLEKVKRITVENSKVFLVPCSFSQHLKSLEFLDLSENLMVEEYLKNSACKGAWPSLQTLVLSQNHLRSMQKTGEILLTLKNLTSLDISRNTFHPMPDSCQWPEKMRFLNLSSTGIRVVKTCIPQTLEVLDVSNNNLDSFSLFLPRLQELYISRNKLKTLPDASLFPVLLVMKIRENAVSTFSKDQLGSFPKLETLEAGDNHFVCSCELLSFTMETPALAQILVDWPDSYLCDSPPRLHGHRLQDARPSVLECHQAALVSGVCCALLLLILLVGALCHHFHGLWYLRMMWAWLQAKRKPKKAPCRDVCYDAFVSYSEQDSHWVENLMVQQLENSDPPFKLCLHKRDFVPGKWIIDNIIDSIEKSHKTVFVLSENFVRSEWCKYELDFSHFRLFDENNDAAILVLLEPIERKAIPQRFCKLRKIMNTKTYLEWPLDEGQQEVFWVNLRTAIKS
In words: TLR2 response in murine cells. It counts as cell-based.

The target of a further assay is T2, TLR9 (Mus musculus, UniProt Q9EQU3).
T2 construct: using the murine macrophage cell line RAW264.7; endogenous in cells; host or cells: RAW264.7
T2 sequence (Q9EQU3 26-1032): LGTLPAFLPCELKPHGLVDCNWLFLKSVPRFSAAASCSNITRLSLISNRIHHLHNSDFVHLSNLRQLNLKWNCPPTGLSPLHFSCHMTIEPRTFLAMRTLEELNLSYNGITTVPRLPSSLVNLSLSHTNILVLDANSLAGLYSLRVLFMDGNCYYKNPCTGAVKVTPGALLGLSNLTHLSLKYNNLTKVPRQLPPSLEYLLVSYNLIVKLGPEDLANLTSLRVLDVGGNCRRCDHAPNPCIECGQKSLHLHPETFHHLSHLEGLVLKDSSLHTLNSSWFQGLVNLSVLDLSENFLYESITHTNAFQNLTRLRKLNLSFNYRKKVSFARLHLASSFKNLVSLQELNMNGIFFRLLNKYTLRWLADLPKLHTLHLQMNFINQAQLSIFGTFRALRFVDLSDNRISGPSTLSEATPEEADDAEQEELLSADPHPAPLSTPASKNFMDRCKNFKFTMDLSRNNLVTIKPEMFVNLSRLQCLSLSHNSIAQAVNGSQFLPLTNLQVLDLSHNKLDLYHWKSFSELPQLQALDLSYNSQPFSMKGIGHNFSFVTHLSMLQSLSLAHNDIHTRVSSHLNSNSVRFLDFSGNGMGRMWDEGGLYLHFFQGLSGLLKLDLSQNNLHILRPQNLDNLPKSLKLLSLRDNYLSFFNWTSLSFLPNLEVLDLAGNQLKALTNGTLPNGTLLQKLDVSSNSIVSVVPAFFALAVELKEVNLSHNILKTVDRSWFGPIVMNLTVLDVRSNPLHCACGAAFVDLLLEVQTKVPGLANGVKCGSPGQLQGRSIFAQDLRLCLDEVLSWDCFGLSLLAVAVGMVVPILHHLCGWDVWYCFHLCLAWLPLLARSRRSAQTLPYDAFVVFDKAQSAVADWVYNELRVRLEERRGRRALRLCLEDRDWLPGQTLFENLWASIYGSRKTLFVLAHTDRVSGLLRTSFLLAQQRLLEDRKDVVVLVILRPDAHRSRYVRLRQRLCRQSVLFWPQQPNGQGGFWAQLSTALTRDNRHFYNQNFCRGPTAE
In words: CpG-induced TNFα in RAW264.7 cells, ELISA. Type of assay: cell-based, murine. As to conditions: peptide 5 or 20 μM 1 h before CpG, supernatant 24 h. On the procedure: FIGS. 2A and B are bar charts showing the effect of peptides derived from A46 on CpG-induced TNFα in murine RAW264.7 cells. A46 peptides were added to the cells at a concentration of 5 or 20 μM 1 hour before stimulating with […] CpG. Supernatants were collected 24 hours after stimulation and assayed for TNFα by ELISA. No peptides were added into the control wells (black bars). (A) peptides A461-A467 (SEQ ID NO. 17 to 23). (B) peptides A468-A4614 (SEQ ID NO. 24 to 30) (excluding A4612 SEQ ID NO. 28). Data is representative of at least two experiments each performed in triplicate and is expressed as mean±s.d;
as §1
These peptides were initially screened for effects on TLR-induced gene induction in vitro using the murine macrophage cell line RAW264.7. Unmethylated CpG dinucleotides of bacterial DNA sequences are detected by TLR9, which leads to production of pro-inflammatory cytokines and chemokines, including TNFα via a MyD88-dependent pathway (Latz et al, 2004). […] The effect of the peptides on two TLR9-induced cytokines, namely TNFα and MIP-2, was measured by ELISA. TNFα is NFκB-dependent, and MIP-2 as well as NFκB also requires IRFs for transcriptional activation (De Filippo et al, 2008). […]
Background: An ELISA detects its analyte on a solid surface through an enzyme-linked reagent.

Entries after “also recorded” stand apart in the source; their conditions may differ. Square brackets hold non-standard residues; d marks the D form. Ends that are not written are not given here.

For “9RN-A464 (RRRRRRRRRKYSFKLILAEY) [Peptide 9RN-A464]”, the “serum IL-12p40 level compared with PBS-treated animals” value in the assay on IL-12p40 (listed as L-9RN-A464, 3 mg/kg) was “not significantly different from mice receiving only PBS; also recorded: not significantly different from the PBS-treated animals”. Also, the “inhibition of LPS-induced serum IL-12p40” value in the assay on IL-12p40 is “significantly inhibited LPS-induced IL-12p40”.
For “D-9RN-A464 ([dR][dR][dR][dR][dR][dR][dR][dR][dR][dK][dY][dS][dF][dK][dL][dI][dL][dA][dE][dY]) [Peptide D-9RN-A464]”, in the assay on IL-12p40 (3 mg/kg), the “serum IL-12p40 level compared with PBS-treated animals” value is on record as “not significantly different from mice receiving only PBS; also recorded: not significantly different from the PBS-treated animals”. The “inhibition of LPS-induced serum IL-12p40” value in the assay with IL-12p40 was “significantly inhibited LPS-induced IL-12p40”.
Regarding KYSFKLILAEYRRRRRRRRR [Peptide A464], the “effect on TLR2 in murine cells” value with TLR2 was “unaffected”. Besides, the “inhibition of CpG-induced TNFα production” value with TLR9 was “little or no effect”.
